Assay results published in patent publication US8975398B2, “NAMPT inhibitors” (AbbVie Inc., priority 2012, dated 2015).

Legend:
[1] = target: NAMPT (human, recombinant, C-terminally His-tagged) (Homo sapiens, UniProt P43490); assay: Time-Resolved Fluorescence Resonance Energy Transfer (TR-FRET) Binding Assay of NAMPT; conditions: 6.8 nM NAMPT, 200 nM probe, equilibrated 3 hours, absence of substrates
Procedure, shortened: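 Recombinant C-terminally His-tagged human NAMPT (6.8 nM) incubated 3 h at room temperature with 200 nM Oregon Green 488–labelled nicotinamide-competitive probe and 1 nM Tb-anti-His antibody in HEPES pH 7.5, 2% DMSO. TR-FRET ratio Em520/Em495 normalized to controls; IC50 from four-parameter logistic fit.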

[2] = target: NAMPT (Homo sapiens, UniProt P43490); assay: Time-Resolved Fluorescence Resonance Energy Transfer (TR-FRET) Binding Assay of NAMPT with PRPP; conditions: 2 nM NAMPT, 2 nM probe, 200 uM PRPP and 2.5 mM ATP, equilibrated 16 hours
Chain of NAMPT (P43490 whole entry): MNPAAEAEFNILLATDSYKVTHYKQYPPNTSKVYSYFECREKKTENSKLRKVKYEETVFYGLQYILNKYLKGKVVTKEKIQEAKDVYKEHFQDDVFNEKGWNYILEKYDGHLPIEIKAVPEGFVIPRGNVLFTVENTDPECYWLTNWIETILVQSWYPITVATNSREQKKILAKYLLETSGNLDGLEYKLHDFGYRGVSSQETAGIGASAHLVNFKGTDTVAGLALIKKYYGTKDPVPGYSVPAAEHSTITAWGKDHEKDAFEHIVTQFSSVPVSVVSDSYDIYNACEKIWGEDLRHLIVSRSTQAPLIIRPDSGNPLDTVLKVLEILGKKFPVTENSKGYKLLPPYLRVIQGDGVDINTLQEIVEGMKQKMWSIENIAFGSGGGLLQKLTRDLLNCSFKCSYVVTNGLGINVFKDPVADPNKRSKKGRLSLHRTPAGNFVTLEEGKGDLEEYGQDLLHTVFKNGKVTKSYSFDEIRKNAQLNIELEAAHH
Procedure, shortened: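 Final mix: 2 nM NAMPT, 2 nM probe, 1 nM Tb-anti-His antibody, 200 uM PRPP, 2.5 mM ATP, 2% DMSO in 1× assay buffer. Equilibrated 16 hours before TR-FRET read, allowing possible enzymatic modification of compounds.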

Chain of NAMPT (human, recombinant, C-terminally His-tagged) (P43490 whole entry): as above

IC50 [1]	IC50 [2]	SMILES
0.0773 µM	0.000494 µM	O=C(Nc1ccc(C2CCN(C(=O)CC[N+](=O)[O-])CC2)cc1)C1CN(c2cccnn2)C1 [Example 336, N-{4-[1-(3-nitropropanoyl)piperidin-4-yl]phenyl}-1-(pyridazin-3-yl)azetidine-3-carboxamide]
0.0828 µM	0.000837 µM	O=C(Nc1ccc(C2CCN(C(=O)c3cccc(C(F)(F)F)c3)CC2)cc1)C1CN(c2cccnn2)C1 [Example 354, 1-(pyridazin-3-yl)-N-(4-{1-[3-(trifluoromethyl)benzoyl]piperidin-4-yl}phenyl)azetidine-3-carboxamide]
0.265 µM	0.00164 µM	O=C(Nc1ccc(OC2CCN(C(=O)c3cscn3)CC2)cc1)C1CN(c2cccnn2)C1 [Example 218, 1-(pyridazin-3-yl)-N-(4-{[1-(1,3-thiazol-4-ylcarbonyl)piperidin-4-yl]oxy}phenyl)azetidine-3-carboxamide]
0.0658 µM	0.000657 µM	O=C(Nc1ccc(C2CCN(C(=O)CSc3ncccn3)CC2)cc1)C1CN(c2cccnn2)C1 [Example 382, 1-(pyridazin-3-yl)-N-(4-{1-[(pyrimidin-2-ylsulfanyl)acetyl]piperidin-4-yl}phenyl)azetidine-3-carboxamide]
0.0202 µM	0.0155 µM	O=C(Nc1ccc(OC2CCN(C(=O)c3ccccc3Cl)CC2)cc1)C1CN(c2ccnnc2)C1 [Example 279, N-(4-{[1-(2-chlorobenzoyl)piperidin-4-yl]oxy}phenyl)-1-(pyridazin-4-yl)azetidine-3-carboxamide]
0.858 µM	0.00288 µM	O=C(Nc1ccc(OC2CCN(C(=O)[C@@H]3CCCO3)CC2)cc1)[C@H]1CCN(c2cccnc2)C1 [Example 13, (3S)-1-(pyridin-3-yl)-N-[4-({1-[(2S)-tetrahydrofuran-2-ylcarbonyl]piperidin-4-yl}oxy)phenyl]pyrrolidine-3-carboxamide]
0.0528 µM	0.0134 µM	CC(C)C(=O)N1CC(Oc2ccc(NC(=O)C3CN(c4ccnnc4)C3)cc2)C1 [Example 264, N-(4-{[1-(2-methylpropanoyl)azetidin-3-yl]oxy}phenyl)-1-(pyridazin-4-yl)azetidine-3-carboxamide]
0.0251 µM	0.034 µM	O=C(Nc1ccc(OC2CN(C(=O)c3ccc(C(F)(F)F)cc3)C2)cc1)C1CN(c2ccnnc2)C1 [Example 205, 1-(pyridazin-4-yl)-N-[4-({1-[4-(trifluoromethyl)benzoyl]azetidin-3-yl}oxy)phenyl]azetidine-3-carboxamide]
0.911 µM	0.000666 µM	O=C(Nc1ccc(OC2CCN(CC3CC3)CC2)cc1)C1CN(c2cccnc2)C1 [Example 74, N-(4-{[1-(cyclopropylmethyl)piperidin-4-yl]oxy}phenyl)-1-(pyridin-3-yl)azetidine-3-carboxamide]
0.0758 µM	0.0334 µM	O=C(Nc1ccc(OC2CCN(C(=O)c3ccsc3)CC2)cc1)C1CN(c2ccnnc2)C1 [Example 278, 1-(pyridazin-4-yl)-N-(4-{[1-(thiophen-3-ylcarbonyl)piperidin-4-yl]oxy}phenyl)azetidine-3-carboxamide]
0.0281 µM	0.000598 µM	O=C(Nc1ccc(C2CCN(C(=O)CC3CCOCC3)CC2)cc1)C1CN(c2cccnc2)C1 [Example 25, 1-(pyridin-3-yl)-N-{4-[1-(tetrahydro-2H-pyran-4-ylacetyl)piperidin-4-yl]phenyl}azetidine-3-carboxamide]
0.15 µM	0.0483 µM	O=C(Nc1ccc(OC2CCN(C(=O)C3CCCO3)CC2)cc1)C1CN(c2ccnnc2)C1 (centres unmarked) [Example 302, 1-(pyridazin-4-yl)-N-(4-{[1-(tetrahydrofuran-2-ylcarbonyl)piperidin-4-yl]oxy}phenyl)azetidine-3-carboxamide]
0.217 µM	0.00413 µM	CC(C)(C)C(=O)N1CCC(c2ccc(NC(=O)[C@H]3CCN(c4cccnn4)C3)cc2)CC1 [Example 313, (3S)—N-{4-[1-(2,2-dimethylpropanoyl)piperidin-4-yl]phenyl}-1-(pyridazin-3-yl)pyrrolidine-3-carboxamide]
